Assay results reported in paper PMC7177833, “2-Aminopyridine Analogs Inhibit Both Enzymes of the Glyoxylate Shunt in Pseudomonas aeruginosa” (International Journal of Molecular Sciences, 2020).
In brackets after ≈: the same amount, converted by molar mass. Where two headings read alike, the source gives them in different places.

Assays:
[1] = biological target: T1, MSPa (malate synthase G from P. aeruginosa) (Pseudomonas aeruginosa, UniProt Q9I636); experiment: Inhibition of purified MSPa enzymatic activity; format: biochemical; conditions: for inhibition at 75 µM: 75 µM compound, read-out: Enzyme Inhibition (%) at 75 µM MSPa
T1 construct: made in house
Experimental: (§1) The enzymatic activity of purified ICLPa and MSPa was assayed essentially as previously described. Compounds were added to the reaction mixtures (minus substrates) and incubated for 5 min at 37 °C. The enzyme concentration in the reaction mixtures was 170 nM for ICL and 25 nM for MS (based on the concentration of the monomer in each case). […] The reactions were initiated by the addition of pH-adjusted substrates, and the initial rates were recorded as A324 nm (for ICLPa) and A412 nm (for MSPa) using a Biospectrometer (Eppendorf, Stevenage, UK). Substrate turnover was calculated from the molar extinction coefficient of the assay products: Glyoxylate-phenylhydrazone (16,800/M/cm) for ICLPa and 2-nitro-5-thiobenzoic acid (14,150/M/cm) for MSPa.
(§2) All data fitting was performed with GraphPad Prism version 7.04 (GraphPad Software, Inc., La Jolla, CA, USA). The solid lines are the result of fitting the data to the equations denoted in relevant experimental sections. IC50 values were determined by a nonlinear fit using the equation for sigmoidal dose-response with variable slope. In all graphs, unless otherwise stated, the data points are the mean of experimental triplicates, and all error bars correspond to ± standard deviation.

[2] = biological target: T2, ICLPa (isocitrate lyase from P. aeruginosa) (Pseudomonas aeruginosa, UniProt Q9I0K4); experiment: Inhibition of purified ICLPa enzymatic activity; format: biochemical; conditions: for IC50: purified enzyme, 170 nM ICL
T2 construct: made in house
T2 sequence (Q9I0K4 1-531): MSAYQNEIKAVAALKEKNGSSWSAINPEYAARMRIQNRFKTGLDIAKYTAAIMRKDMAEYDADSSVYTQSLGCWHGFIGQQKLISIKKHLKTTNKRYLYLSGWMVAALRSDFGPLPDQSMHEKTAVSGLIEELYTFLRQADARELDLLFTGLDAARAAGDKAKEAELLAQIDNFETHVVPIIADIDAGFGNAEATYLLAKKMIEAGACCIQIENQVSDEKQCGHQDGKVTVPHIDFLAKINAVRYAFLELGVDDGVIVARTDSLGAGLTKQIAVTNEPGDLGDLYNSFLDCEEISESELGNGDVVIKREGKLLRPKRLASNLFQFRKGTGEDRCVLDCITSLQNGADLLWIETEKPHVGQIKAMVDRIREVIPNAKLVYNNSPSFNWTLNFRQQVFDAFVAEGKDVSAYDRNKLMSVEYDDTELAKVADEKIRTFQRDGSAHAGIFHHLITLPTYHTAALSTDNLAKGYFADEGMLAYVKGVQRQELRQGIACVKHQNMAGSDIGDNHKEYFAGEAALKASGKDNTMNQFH
Experimental: as §1, §2

P. aeruginosa PAO1 = experiment: Antibacterial growth assay (OD600, 18 h) in LB or M9-acetate; format: cell-based; conditions: Pseudomonas aeruginosa; for inhibition at 200 µM: final optical density; for MIC: PAO1, MIC = lowest concentration inhibiting >75% of growth
Experimental: Growth assays were carried out using clear, U-bottom, sterile 96-well plates (Thermo Fisher Scientific, Bishop’s Stortford, UK). P. aeruginosa PAO1 overnight cultures were diluted to a starting OD600 of 0.05 in LB medium or M9 medium supplemented with 0.5% acetate. The test compounds were added to the indicated final concentrations, and the plates were covered with gas-permeable adhesive seals (Scientific Laboratory Supplies, Nottingham, UK). Assay controls included 1% DMSO, a positive antibiotic control (ciprofloxacin, 1 µg/mL), and medium-only wells as a control for background absorbance. […]

[3] = 75 µM compound, read-out: Enzyme Inhibition (%) at 75 µM ICLPa
[4] = PAO1, LB medium, read-out: PAO1 Growth Inhibition (%) at 200 µM LB
[5] = PAO1, M9-acetate medium, read-out: PAO1 Growth Inhibition (%) at 200 µM M9ac
[6] = M9 medium with 0.5% acetate, read-out: MIC M9ac

T1 sequence (Q9I636 whole entry): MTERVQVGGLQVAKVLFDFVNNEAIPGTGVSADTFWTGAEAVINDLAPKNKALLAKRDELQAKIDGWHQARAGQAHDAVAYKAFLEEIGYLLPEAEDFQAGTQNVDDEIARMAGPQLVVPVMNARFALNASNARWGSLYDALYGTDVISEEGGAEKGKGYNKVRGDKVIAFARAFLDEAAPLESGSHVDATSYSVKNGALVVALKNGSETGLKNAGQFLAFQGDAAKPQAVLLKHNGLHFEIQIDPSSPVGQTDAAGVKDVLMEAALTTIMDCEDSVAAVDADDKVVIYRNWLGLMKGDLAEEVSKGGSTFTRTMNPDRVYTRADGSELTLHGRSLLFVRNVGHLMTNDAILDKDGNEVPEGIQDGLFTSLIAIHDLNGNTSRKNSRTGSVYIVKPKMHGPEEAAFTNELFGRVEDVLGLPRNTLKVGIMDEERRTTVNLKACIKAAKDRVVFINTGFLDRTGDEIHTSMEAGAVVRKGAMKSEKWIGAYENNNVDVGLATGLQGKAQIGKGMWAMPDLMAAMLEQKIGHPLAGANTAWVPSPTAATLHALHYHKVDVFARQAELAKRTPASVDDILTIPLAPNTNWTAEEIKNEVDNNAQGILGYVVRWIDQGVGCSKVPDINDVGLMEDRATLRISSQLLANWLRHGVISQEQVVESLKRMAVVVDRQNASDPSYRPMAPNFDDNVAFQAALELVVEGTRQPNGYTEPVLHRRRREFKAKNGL

SMILES	IC50 [1] [µM]	inhibition at 75 µM [1] [%]	inhibition at 75 µM [2, 3] [%]	IC50 [2] [µM]	inhibition at 200 µM (P. aeruginosa PAO1; [4]) [%]	inhibition at 200 µM (P. aeruginosa PAO1; [5]) [%]	MIC (P. aeruginosa PAO1; LB medium, read-out: MIC LB) [µM]	MIC (P. aeruginosa PAO1; [6]) [µM]	Enzyme Inhibition (%) at 75 µM ICLPa ([2]; 75 µM compound) [%]	inhibition at 75 µM ([2]; read-out: Enzyme Inhibition (%) at 75 µM ICLPa, 75 µM compound) [%]
CC(C)(C)OC(=O)/N=C(\NC(=O)OC(C)(C)C)Nc1cc(F)ccn1 [SB026]	59.3	55.1	62	54.5	~23	72	> 200	70.9 (≈ 25.1 µg/mL)		
COC(=O)c1ccnc(N/C(=N/C(=O)OC(C)(C)C)NC(=O)OC(C)(C)C)c1 [SB029]	> 75	0	55.9	64.7	6	45	> 200	> 78.9		
CC(C)(C)OC(=O)/N=C(\NC(=O)OC(C)(C)C)Nc1cc(Br)ccn1 [SB001]	> 75	16.2	6.1	> 75	0	48	> 200	> 200		
CC(C)(C)OC(=O)/N=C(\NC(=O)OC(C)(C)C)Nc1cc(C(F)(F)F)ccn1 [SB022]	> 75	0	4.3	> 75	0	7	> 200	> 200		
C=C(CC(=O)O)C(=O)O [ITA, itaconate, reference compound]				24.9					72.6	~70
CC(C)(C)OC(=O)/N=C(\NC(=O)OC(C)(C)C)Nc1ccnc(Cl)c1 [SB032]	70.6	48.7	43.8	91.8						
